Source: patent publication US6465204B1, “Amidase” (Diversa Corporation, priority 1996, dated 2002)

B1: enzyme: purified thermostable amidase derived from Thermococcus GU5L5, 622 amino acid residues (SEQ ID NO:2) (protein)
chain: MTGIEWNHETFSKFAYLGDPRIRGNLIAYTLTKANMKDNKYESTVVVEDLETGSRRFIENASMPRISPDGRKLAFTCFNEEKKETEIWVADIQTLSAKKVLSTKNVRSMQWNDDSRRLLVVGFKRRDDEDFVFDDDVPVWFDNMGFFDGEKTTFWVLDTEAEEIIEQFEKPRFSSGLWHGDAIVVNVPHREGSKPALFKFYDIVLWKDGEEEKLFERVSFEAVDSDGKRILLRGKKKKRFISEHDWLYLWDGELKPIYEGPLDVWEAKLTEGKVYFLTPDAGRVNLWLWDGKAERVVTGDHWIYGLDVSDGKALLLIMTATRIGELYLYDGELKQVTEYNGPIFRKLKTFEPRHFRFKSKDLEIDGWYLRPEVKEEKAPVIVFVHGGPKGMYGHRFVYEMQLMASKGYYVVFVNPRGSDGYSEDFALRVLERTGLEDFEDIMNGIEEFFKLEPQADRERVGITGISYGGFMTNWALTQSDLFKAGISENGISYWLTSYAFSDIGLWYDVEVIGPNPLENENFRKLSPLFYAQNVKAPILLIHSLEDYRCPLDQSLMFYNVLKDMGKEAYIAIFKRGAHGHSVRGSPRHRPKRYRLFIEFFERKLKKYEEGFEVEKILKGNGN

What was measured:
[1] = test system: Thermococcus GU5L5 amidase; test: Substrate specificity of the amidase (fluorogenic substrates); type: biochemical; details: substrate 100 μM, 1 hour at 70° C.; ratio between substrates
Experimental: Fifty μL of the ‘600 μM stock solution’ was added to each of the wells of a white condensed plate using the Biomek to yield a final concentration of substrate of ˜100 μM. The fluorescence values were recorded (excitation=400 nm, emission=505 nm) on a plate reading fluorometer immediately after addition of the substrate. The plate was incubated at 70° C. for 60 min. and the fluorescence values were recorded again. The initial and final fluorescence values were subtracted to determine if an active clone was present by an increase in fluorescence over the majority of the other wells.
The excitation and emission wavelengths for the 7-amido-4-methylcoumarins were 380 and 460 nm respectively, and 326 and 450 for the methylumbelliferone.

[2] = test system: Thermococcus GU5L5 amidase; test: Activity and enantioselectivity of the amidase in increasing concentrations of DMF; type: biochemical; details: for Initial Rate: RT, cell lysate, pH 7.5 Hepes
Experimental: The activity and enantioselectivity of the amidase in increasing concentrations of dimethyl formamide (DMF) was tested as follows: to each well of a microtiter plate was added 30 μL of 1 mM CBZ-L-arg-AMC or CBZ-D-arg-AMC in DMF, 30 μL of cell lysate containing the amidase activity, and 240 μL of a variable mixture of DMF:pH 7.5, 50 mM Hepes buffer. The reactiosn were incubated at RT for 1 hour and the fluorescence measured at 1 minute intervals.

[3] = Organic solvent sensitivity: activity of the amidase in increasing concentrations of DMSO; type: biochemical, Thermococcus GU5L5
Experimental: The activity of the amidase in increasing concentrations of dimethyl sulfoxide (DMSO) was tested as follows: to each well of a microtiter plate was added 10 μL of 3 mM CBZ-L-phe-AMC in DMSO, 25 μL of cell lysate containing the amidase activity, and 250 μL of a variable mixture of DMSO:pH 7.5, 50 mM Hepes buffer. The reactions were heated for 1 hour at 70° C. and the fluorescence measured. […] The filled and open boxes represent individual assays.

[4] = Temperature tolerance of the enzyme; parameters: species or system Thermococcus GU5L5

Molecule | relative activity of the amidase [1] | Initial Rate ([2]; DMF 0.4%) [Fl.U./min] | Initial Rate ([2]; DMF 10%) [Fl.U./min] | Initial Rate ([2]; DMF 20%) [Fl.U./min] | Initial Rate ([2]; DMF 30%) [Fl.U./min] | Initial Rate ([2]; DMF 40%) [Fl.U./min] | Initial Rate ([2]; DMF 50%) [Fl.U./min] | Initial Rate ([2]; DMF 60%) [Fl.U./min] | Initial Rate ([2]; DMF 75%) [Fl.U./min] | Initial Rate ([2]; DMF 90%) [Fl.U./min] | selectivity for the L enantiomer of the derivatized amino acid substrate ([2]; CBZ-L-arg-AMC versus CBZ-D-arg-AMC) | concentration of organic solvent tolerated [3] [% DMSO] | temperature tolerated [4]
CSCC[C@H](NC(=O)OCc1ccccc1)C(=O)Nc1ccc2c(C)cc(=O)oc2c1 [CBZ-L-met-AMC, Nα-carbonylbenzyloxy-L-methionine-7-amido-4-methylcoumarin] | 1 |  |  |  |  |  |  |  |  |  |  |  | 
Cc1cc(=O)oc2cc(NC(=O)[C@@H](CCCNC(=N)N)NC(=O)OCc3ccccc3)ccc12 [CBZ-D-arg-AMC, Nα-carbonylbenzyloxy-D-arginine-7-amido-4-methylcoumarin] |  | 0.3 | 10.1 | 4.6 | 1.8 | 0.9 | 1.2 | 1.4 | 0.1 | 0.1 |  |  | 
Cc1cc(=O)oc2cc(NC(=O)[C@H](Cc3ccccc3)NC(=O)OCc3ccccc3)ccc12 [CBZ-L-phe-AMC, Nα-carbonylbenzyloxy-L-phenylalanine-7-amido4-methylcoumarin] | 3 |  |  |  |  |  |  |  |  |  |  |  | 
Cc1cc(=O)oc2cc(NC(=O)[C@H](CCCNC(=N)N)NC(=O)OCc3ccccc3)ccc12 [CBZ-L-arg-AMC, Nα-carbonylbenzyloxy-L-arginine-7-amido-4-methylcoumarin] | 3 | 654 | 2548 | 1451 | 541 | 345 | 303 | 190 | 81 | 11 |  |  | 
B1 |  |  |  |  |  |  |  |  |  |  | excellent selectivity for the L | > 40 | at least 70 °C
